Results as given in ChEMBL document CHEMBL1649287, “Postantibiotic effect of ceftaroline against gram-positive organisms” (2009).
In brackets after ≈: the same amount, converted by molar mass.

What was measured:
Assay type in all cases: functional
Staphylococcus aureus [1] = test: Antimicrobial activity against methicillin-susceptible, vancomycin-susceptible Staphylococcus aureus ATCC 29213 assessed as time required to induce post antibiotic sub-MIC effect at 0.2 times MIC after 1 hr by plate counting method; details: ATCC 29213, 1 h
Staphylococcus aureus [2] = test: Antimicrobial activity against methicillin-resistant, vancomycin-susceptible Staphylococcus aureus vs1 assessed as time required to induce sub-MIC effect at 0.4 times MIC after 1 hr by plate counting method; details: vs1, 1 h
Enterococcus faecalis [3] = test: Antimicrobial activity against vancomycin-resistant Enterococcus faecalis 266 assessed as time required to induce sub-MIC effect at 0.3 times MIC after 1 hr by plate counting method; details: Enterococcus faecalis, 266, 1 h
Enterococcus faecalis [4] = test: Antimicrobial activity against vancomycin-resistant Enterococcus faecalis 609 assessed as time required to induce sub-MIC effect at 0.2 times MIC after 1 hr by plate counting method; details: Enterococcus faecalis, 609, 1 h
Streptococcus pneumoniae [5] = test: Antimicrobial activity against Penicillin-susceptible Streptococcus pneumoniae s502 assessed as time required to induce sub-MIC effect at 0.3 times MIC after 1 hr by plate counting method; details: s502, 1 h
Enterococcus faecalis [6] = test: Antimicrobial activity against vancomycin-resistant Enterococcus faecalis 266 assessed as post antibiotic effect at 10 times MIC after 1 hr by plate counting method; details: Enterococcus faecalis, 266, 1 h
Enterococcus faecalis [7] = test: Antimicrobial activity against vancomycin-resistant Enterococcus faecalis 609 assessed as time required to induce post antibiotic sub-MIC effect at 0.3 times MIC after 1 hr by plate counting method; details: Enterococcus faecalis, 609, 1 h
Staphylococcus aureus [8] = test: Antimicrobial activity against methicillin-resistant, vancomycin-intermediate Staphylococcus aureus 510 assessed as time required to induce post antibiotic sub-MIC effect at 0.2 times MIC after 1 hr by plate counting method; details: Staphylococcus aureus, 510, 1 h
Streptococcus pneumoniae [9] = test: Antimicrobial activity against Penicillin-, erythromycin-resistant Streptococcus pneumoniae 37 assessed as time required to induce post antibiotic sub-MIC effect at 0.2 times MIC after 1 hr by plate counting method; details: Streptococcus pneumoniae, 37, 1 h
Enterococcus faecalis [10] = test: Antimicrobial activity against vancomycin-sensitive Enterococcus faecalis ATCC 29212 assessed as time required to induce post antibiotic sub-MIC effect at 0.4 times MIC after 1 hr by plate counting method; details: ATCC 29212, 1 h
Staphylococcus aureus [11] = test: Antimicrobial activity against methicillin-resistant, vancomycin-resistant Staphylococcus aureus 770 assessed as post antibiotic effect at 10 times MIC after 1 hr by plate counting method; details: Staphylococcus aureus, 770, 1 h
Enterococcus faecalis [12] = test: Antimicrobial activity against vancomycin-resistant Enterococcus faecalis 609 assessed as time required to induce post antibiotic sub-MIC effect at 0.2 times MIC after 1 hr by plate counting method; details: Enterococcus faecalis, 609, 1 h
Enterococcus faecalis [13] = test: Antimicrobial activity against vancomycin-sensitive Enterococcus faecalis ATCC 29212 by microdilution method
Staphylococcus aureus [14] = test: Antimicrobial activity against methicillin-resistant, vancomycin-susceptible Staphylococcus aureus vs1 by microdilution method
Staphylococcus aureus [15] = test: Antimicrobial activity against methicillin-resistant, vancomycin-resistant Staphylococcus aureus 770 by microdilution method

## CCO/N=C(\C(=O)N[C@@H]1C(=O)N2C(C(=O)[O-])=C(Sc3nc(-c4cc[n+](C)cc4)cs3)CS[C@H]12)c1nsc(NP(=O)(O)O)n1 [CEFTAROLINE FOSAMIL]
Staphylococcus aureus [1]
  PAE: 2.5 h
Staphylococcus aureus [2]
  time: 1.2 h
Enterococcus faecalis [3]
  time: 1.8 h
Enterococcus faecalis [4]
  time: 1.4 h
Streptococcus pneumoniae [5]
  PAE: 0.3 h
Enterococcus faecalis [6]
  PAE: 0.9 h
Enterococcus faecalis [7]
  time: 3.3 h
Staphylococcus aureus [8]
  time: 5.4 h
Streptococcus pneumoniae [9]
  time: 1.9 h
Enterococcus faecalis [10]
  PAE: > 10.6 h
Staphylococcus aureus [11]
  PAE: 1.3 h
Enterococcus faecalis [12]
  time: 3 h
Enterococcus faecalis [13]
  MIC: 1 µg/mL (≈ 1.46 µM)
Staphylococcus aureus [14]
  MIC: 0.5 µg/mL (≈ 0.73 µM)
Staphylococcus aureus [15]
  MIC: 1 µg/mL (≈ 1.46 µM)
